Experimental data as given in article PMC7226839, “Modulation of STAT3 Signaling, Cell Redox Defenses and Cell Cycle Checkpoints by β-Caryophyllene in Cholangiocarcinoma Cells: Possible Mechanisms Accounting for Doxorubicin Chemosensitization and Chemoprevention” (Cells, 2020).
Counter-ions that a name gives are not always drawn. Like-named read-outs stand apart in the source and are kept apart here.

Experiments:
[1] = tested on: glutathione in Mz-ChA-1 cholangiocarcinoma cells; test: HPLC determination of intracellular GSH and GSSG; assay type: cell-based, human
Procedure: (§1) Intracellular levels of reduced (GSH) and oxidized (GSSG) glutathione were measured by HPLC-UV, as previously described. Briefly, after treatments with β-caryophyllene (50 µM) and doxorubicin (20 µM), the harvested cells (1 × 10^6 cells) were suspended in 10% ice-cold TCA and centrifuged for 15 min at 9000× g, then supernatant was collected and GSH and GSSG measured by HPLC with UV detection at 215 nm. The separation was achieved using a InfinityLab poroshell 120 EC-C18 column (3 × 150 mm, 2.7 μm) at a flow rate of 0.8 mL/min, using the following elution gradient: 0–3 min 100% A + 0% B, 3–10 min from 100% A to 100% B. The mobile phase A contained 0.1% trifluoroacetic acid in water, whereas mobile phase B was 0.1% trifluoroacetic acid in water/acetonitrile (93:7). Under our chromatographic conditions, retention times of GSH and GSSG were 2.58 min and 7.01 min, respectively.

[2] = tested on: glutathione in H69 noncancerous cholangiocytes; test: HPLC determination of intracellular GSH and GSSG; assay type: cell-based; conditions: H69, 24 h
Procedure: as §1

[3] = tested on: H69 noncancerous cholangiocytes; test: Cell cycle analysis (PI flow cytometry); assay type: cell-based; conditions: H69, 24 h
Procedure: Analysis of cell cycle progression was performed by applying a one parameter flow cytometric method, in which cell cycle distribution was evaluated on the basis of DNA content. Briefly, after treatments, the harvested cells (about 1 × 10^6 cells) were fixed in ice cold 70% ethanol and stored for at least 2 h at 4 °C. Thereafter, the ethanol-suspended cells were separated by centrifugation, rinsed in PBS, then resuspended in a propidium iodide (PI) staining solution, containing 0.1% v/v Triton X-100, 10 μg/mL PI and 100 μg/mL DNase-free RNase A in PBS and stored at 4 °C in the dark for at least 30 min. For each sample, the mean fluorescence of PI (maximum excitation of PI bound to DNA at 536 nm; emission at 617 nm) in 50,000 cells was measured using a BD Accuri^TM C6 flow cytometer FL2 channel (BD Biosciences, Milan, Italy) and deconvolution of the DNA content frequency histograms, to estimate the proportions of cells in the respective phases of the cycle, was made by Modfit 4.1 software (Verity Software House, Topsham, ME, USA).

[4] = tested on: γH2AX in Mz-ChA-1 cholangiocarcinoma cells; test: Western blotting of phosphorylated H2AX (Ser139); assay type: cell-based, human; conditions: for increase in γH2AX levels compared the control: doxorubicin 20 µM
Procedure: (§2) To perform the analysis, the cells were seeded in 6-well plates, then subjected to the treatment with β-caryophyllene (50 µM) and doxorubicin (20 µM), alone and in combination, for the required time exposure, then harvested by centrifugation and washed in PBS. A lysis buffer, containing SDS (2% w/w), Tris-hydrochloride (20 mM; pH 7.4), urea (2 M), glycerol (10% w/w), sodium orthovanadate (2 mM), DTT (10 mM) and a protease inhibitors cocktail (1:100 dilution) was used to achieve the cell protein separation. The separated proteins were resolved by SDS-PAGE 10% TGX FastCast™ Acrylamide gel (BioRad, Segrate, Italy) and transferred on PVDF membranes (BioRad, Segrate, Italy) by using a Trans-Blot® Turbo™ Transfer System (BioRad, Segrate, Italy). The membranes were blocked with a 0.2% w/v I-block (Thermo Fisher Scientific, Rodano, Italy) in Tris-buffered saline containing 0.05% Tween-20 (TBS-T), then stained with the desired primary antibodies. […] After rinsing three times in TBS-T to remove unbound primary antibody, the membranes were incubated for an additional hour with the appropriate horseradish peroxidase- or alkaline phosphatase-conjugated secondary antibody (Jackson ImmunoResearch, Pero, Italy). […] Each experiment was performed at least in three replicates.

[5] = tested on: phospho(Tyr705)-STAT3 in Mz-ChA-1 cells; test: Western blotting of phospho(Tyr705)-STAT3; assay type: cell-based, human; conditions: for increase of phospho(Tyr705)-STAT3 compared the control: β-caryophyllene 50 µM, doxorubicin 20 µM
Procedure: as §2

[6] = tested on: H69 noncancerous cholangiocytes; test: MTT cytotoxicity and combination assay; assay type: cell-based; conditions: for IC50: combination with 50 µM β-caryophyllene; for cytotoxicity: H69, 100 μM
Procedure: (§3) To perform the assay, the cells were grown for 24 h into 96-well microplates (2 × 10^4 cells/well), then treated with the test substances and incubated according to the applied protocol schedule [26]. At the end of incubation, the cytotoxicity was measured by the 3-[4,5-dimethylthiazol-2-yl] -2,5-diphenyl tetrazolium bromide (MTT) assay, using an Epoch Microplate Spectrophotometer (BioTek, AHSI, Milan Italy). At least three biologic replicates, in which each concentration was tested in triplicate, were made. Comparing the number of viable cells in each treatment respect to the vehicle control allows to measure a cell viability reduction. The effect of the treatment was considered as cytotoxic when at least a 30% lowering of cell viability occurred [59].
(§4) In the single long-term schedule, confluence cells were exposed to the test substances for 24 h and 72 h (Figure S1), then the cytotoxicity was measured by the MTT assay. Under the metronomic treatment, the cells were subjected to a short and/or repeated exposure of 2 h to the test substances (Figure S2), as follow: 1) single treatment, the cells were treated for 2 h, then washed and incubated for 72 h; 2) two-repeated treatments, the cells were exposed to the test substances for 2 h, then washed and incubated for functional recovery for further 2 h. After recovering, the cells were further treated with the test substances for 2 h, washed and incubated for 72 h. Finally, the cytotoxicity was measured by the MTT assay as described above.
(§5) RR represents the cytotoxicity enhancement ratio and allows to quantify the efficacy increase of a drug (A) in the presence of a chemosensitizing agent (B), by relating the IC50 of A alone (CA) and that of IC50 of its combination with B (CA+B).

[7] = tested on: ROS in Mz-ChA-1 cholangiocarcinoma cells; test: Intracellular ROS determination (DCFH-DA); assay type: cell-based, human; conditions: β-caryophyllene 50 µM, doxorubicin 20 µM
Procedure: To perform the assay, the cells, seeded in 6-well plates (1 × 10^6 cells/well), were treated with the tested substances (β-caryophyllene, 50 µM; doxorubicin, 20 µM) for the required time exposure, then the ROS levels were measured in the pellets by the 2,7-dichlorofluorescein diacetate assay (DCFH-DA), as previously reported. […] In each experiment, a vehicle control, corresponding to a basal ROS level, were included too. For all the treatments, the mean DCF fluorescence of 50,000 cells was determined by a BD Accuri^TM C6 Software version 1.0.264.21 (BD Biosciences, Milan, Italy).

[8] = tested on: Mz-ChA-1 cholangiocarcinoma cells; test: Annexin-V-Cy3/CFDA flow cytometry (apoptotic and viable cells); assay type: cell-based, human; conditions: for inhibition of viable cells (CF fluorescence): Mz-ChA-1, 2 h and 24 h, maximum
Procedure: Apoptosis extent was evaluated by Annexin-V staining (Annexin V Apoptosis detection kit, Santa Cruz Biotechnology, DBA, Milan, Italy), which is known to specifically binds phosphatidylserine, a […] which is normally embedded in the inner leaflet of plasma membrane and externalized during apoptosis, as a result of the membrane changes. Therefore, apoptotic cells can be directly detected through their staining with the fluorochrome-conjugated Annexin V. The analysis was performed by both fluorescence microscopy and flow cytometry in order to both visualize the event and to achieve a quick and accurate quantification of apoptotic cells.
For flow cytometry analysis, the cells (1 × 10^6 cells) were grown in 6-well plates, treated with β-caryophyllene (50 µM) and doxorubicin (20 µM), alone and in combination for the required time exposure, then collected by trypsinization and resuspended in PBS in the presence of the fluorochrome Annexin-V-Cy3 (4 μg/mL in cell suspension). In order to detect viable cells, the nonfluorescent probe carboxyfluorescein diacetate (CFDA; 2 μg/mL in cell suspension), hydrolyzed in living cells by esterases to its fluorescent carboxyfluorescein metabolite (CF), was included too. For each sample, the mean fluorescence of Annexin-V-Cy3 (excitation/emission at 543/570 nm, respectively) and CF (excitation/emission at 492/514 nm, respectively) in 50,000 cells was measured using a BD Accuri^TM C6 flow cytometer, FL-2 and FL-1 channels respectively (BD Biosciences, Milan, Italy). Although standard flow cytometry apoptosis assays use Annexin V-FITC, we chosen the conjugate with Cy3 in order to avoid the overlapping in the excitation wavelength of annexin V-FITC and CF, which could interfere with the analysis. Cells undergoing apoptosis were also sorted by their typical forward- and side scatter (FSC-SSC) pattern, i.e., increased SSC and decreased FSC, respect to the viable cells. Multiparameter analysis and gating of forward and side scatter as well as fluorescence detection were performed using a BD Accuri^TM C6 Software version 1.0.264.21 (BD Biosciences, Milan, Italy).

[9] = tested on: Mz-ChA-1 cholangiocarcinoma cells
Procedure: as §3, §4
The type of interaction between β-caryophyllene and doxorubicin, i.e., synergy, additivity or antagonism, was evaluated by measuring three parameters: reversal ratio value (RR), combination index (CI) and isobolographic analysis (IB) [24].
as §5
CI gives a quantitative measure of the interaction and is calculated as follow: (CA,X/ICX,A) + (CB, X/ICX,B), in which CA,X and CB,X are the concentrations of A and B at the IC50 value of their combination, whereas ICX,A and ICX,B are the IC50 values of the substances alone. When the CI value was equal to, less or higher than 1, the interaction between test substances was evaluated as additivity, synergism and antagonism, respectively.
The isobolographic analysis, displaying the extent of the interaction between drug A and the potential chemosensitizer B, was obtained by a two-coordinate plot, wherein the IC50 concentrations of A and B were plotted on the x and y axes, corresponding to (CA, 0) and (C0, B), respectively. The substance concentrations used in the combination (CA+B) were placed in the same plot. A nonlinear regression analysis was carried out by GraphPad Prism™ 6.00 software, in order to connect the IC50 value of each drug alone and that of the combination, whereas the line connecting CA and CB represented an additive interaction. A synergism between A and B occurred when CA+B were located below the line, while the interaction was antagonistic when the values were above the line [60].

[10] = H69, double repeated 2 h exposure + 72 h recovery
[11] = H69, single 2 h exposure + 72 h recovery

## COc1cccc2c1C(=O)c1c(O)c3c(c(O)c1C2=O)C[C@@](O)(C(=O)CO)C[C@@H]3O[C@H]1C[C@H](N)[C@H](O)[C@H](C)O1 [Doxorubicin, doxorubicin hydrochloride]
[1]; Mz-ChA-1, 2 h
  lowering of GSH/GSSG ratio: 1.3 fold
[1]; Mz-ChA-1, 2 h, doxorubicin 20 µM
  change in GSH: not significantly decreased
[1]; Mz-ChA-1, 24 h
  change in GSSG: without changes in the GSSG amount
  lowering of GSH/GSSG ratio: 4 fold
[1]; Mz-ChA-1, 24 h, doxorubicin 20 µM
  reduction of GSH: at least 3 fold
[2]
  change in the amount of GSSG: slightly but not significantly reduced
  depletion of GSH: ~2 fold
  lowering of basal GSH/GSSG ratio: ~1.6 fold
[3]; doxorubicin 20 µM
  increase of cell accumulation in S-phase compared the control: ~1.8 fold
  reduction of G0/G1 phase: ≥ 30 fold
[4]; Mz-ChA-1, 2 h
  increase in γH2AX levels compared the control: about 60 fold
[4]; Mz-ChA-1, 24 h
  increase in γH2AX levels compared the control: ~140 fold
[5]; Mz-ChA-1, 2 h
  increase of phospho(Tyr705)-STAT3 compared the control: ~100 fold
[5]; Mz-ChA-1, 24 h
  increase of phospho(Tyr705)-STAT3 compared the control: ~20 fold
[5]; doxorubicin-promoted, Mz-ChA-1 vs H69
  higher phospho(Tyr705)-STAT3 expression in Mz-ChA-1 with respect H69 cholangiocytes: ~10 fold
[6]; 24 h, H69, 24 h exposure
  IC50: 13.6 µM
[6]; 72 h, H69, 72 h exposure
  IC50: 4 µM
[6]; H69
  IC50 reduction, double short exposure compared the single one: 1.5 fold
  cytotoxicity lowering, double repeated metronomic vs 24 h exposure (IC50): ~3 fold
  cytotoxicity lowering, single metronomic vs 24 h exposure (IC50): ~7 fold
  fold more toxic after 72 h with respect to 24 h (IC50 comparison): about 3 fold
[6]; H69, 10 µM, 24 h
  inhibition of cell viability: about 40%
[6]; H69, 10 µM, 72 h
  fold more toxic than the 24 h protocol: 2 fold
  maximal cytotoxicity: about 80%
[6]; double repeated 2 h exposure
  cytotoxicity: ~70%
[6]; single 2 h exposure
  cytotoxicity: about 60%
[6]; H69, 200 µM, 24 h
  maximum inhibition of cell viability: about 80%
[6]; [10]
  IC50: 54.4 µM
[6]; H69, metronomic schedules
  fold safer than the long-term exposures of 72 h: about 100 fold
  nontoxic up to (concentration): up to 20 μM
[6]; [11]
  IC50: 81.8 µM
[7]; Mz-ChA-1, 2 h
  increase of ROS levels with respect to the control: ~7 fold
[7]; Mz-ChA-1, 24 h
  increase of ROS levels with respect to the control: ~4 fold
[8]
  inhibition of viable cells (CF fluorescence): up to 1.5 fold
[8]; Mz-ChA-1, 24 h
  increase of apoptotic rate vs the basal rate in the control: ~3 fold
[9]
  cytotoxicity increase produced by the double repeated exposure: 10%
[9]; Mz-ChA-1
  IC50 lowering, double repeated 2 h metronomic vs 24 h protocol: ~2.4 fold
  IC50 lowering, single 2 h metronomic vs 24 h protocol: about 1.4 fold
  IC50 reduction, double short exposure vs single 2 h treatment: 1.7 fold
  anticancer power under metronomic conditions lower than after 72 h: 3- to 5 fold
  potency increase, 72 h with respect to 24 h (IC50 comparison): at least 7 fold
[9]; Mz-ChA-1, 1 µM, 72 h
  inhibition of cell viability: about 20%
[9]; Mz-ChA-1, 10 μM, 2 h exposure protocol
  inhibition of cell viability: ≥ 35%
[9]; Mz-ChA-1, 10 µM, 24 h
  inhibition of cell viability: about 20%
[9]; Mz-ChA-1, 10 µM, 72 h
  inhibition of cell viability: about 80%
[9]; Mz-ChA-1, 100 μM, both metronomic schedules
  maximum inhibition of cell viability: 80%
[9]; Mz-ChA-1, 200 µM, 24 h
  maximum inhibition of cell viability: about 80%
[9]; Mz-ChA-1, concentrations lower than 10 μM, 2 h exposure protocol
  cell viability reduction vs. control: < 20%

## C=C1CC/C=C(\C)CC[C@@H]2[C@@H]1CC2(C)C [β-Caryophyllene, β-caryophyllene]
[1]; Mz-ChA-1, 24 h
  change in GSSG: without changes in GSSG
[1]; Mz-ChA-1, 24 h, β-caryophyllene 50 µM
  increase of GSH levels vs. control: about 2.5 fold
[1]; Mz-ChA-1, β-caryophyllene alone
  increase of GSH/GSSG ratio: about 2 fold
[2]
  change in the amount of GSSG: slightly increased
[2]; β-caryophyllene 50 µM
  basal GSH/GSSG ratio: retained
  enhancement of GSH: ~1.5 fold
[3]; β-caryophyllene 50 µM
  reduction of G2/M phase vs. control: about 1.4 fold
[4]; Mz-ChA-1, 50 µM, 2 h and 24 h
  effect on γH2AX levels: null effects
[5]; Mz-ChA-1, 2 h
  increase of phospho(Tyr705)-STAT3 compared the control: ≥ 3 fold
[5]; Mz-ChA-1, 24 h
  increase of phospho(Tyr705)-STAT3 compared the control: ≥ 3 fold
[6]; 24 h, H69, 24 h exposure
  IC50: 148 µM
[6]; 72 h, H69, 72 h exposure
  IC50: 146 µM
[6]; H69
  maximum cytotoxicity increase, long-term compared metronomic treatments (IC50): about 1.2 fold
[6]; H69, 50 μM
  reduction of cell viability: lower than 20%
[6]; H69, 125 μM, 24 h and 72 h
  inhibition of cell viability vs. control: about 40%
[6]; H69, 125 μM, metronomic schedules
  effect on cell proliferation: without affecting cell proliferation
[6]; [10]
  IC50: 161 µM
[6]; [11]
  IC50: 177 µM
[7]; Mz-ChA-1, 2 h
  increase of ROS levels with respect to the control: about 1.6 fold
[7]; Mz-ChA-1, 24 h
  increase of ROS levels with respect to the control: ~1.2 fold
[8]
  inhibition of viable cells (CF fluorescence): about 1.2 fold
[8]; Mz-ChA-1, β-caryophyllene 50 µM
  effect on basal apoptosis (annexin-V-Cy3): did not affected the basal apoptosis
[9]; Mz-ChA-1
  fold more toxic after 72 h with respect to the other schedules (IC50 comparison): 1.4- to 2 fold
[9]; Mz-ChA-1, 50 μM
  reduction of cell viability: lower than 20%
[9]; Mz-ChA-1, concentrations higher than 50 μM, 24 h and 72 h
  inhibition of cell viability vs. control: about 20%
[9]; Mz-ChA-1, metronomic schedule
  nontoxic up to (concentration): up to 125 μM
